Reference: article PMC5019375, “Characterization of Potent SMAC Mimetics that Sensitize Cancer Cells to TNF Family-Induced Apoptosis” (PLoS ONE, 2016)
“And” between values parts separate entries of the source, which are not always exact repeats. Equal entries are not always repeated. No end group written: not given here.

Legend:
cIAP1-BIR2 = cIAP1-BIR2 (Homo sapiens, UniProt Q13490); test: FP competition assay, displacement of SMAC-rhodamine
Experimental: (§3) Solutions for assessing SMAC-rhodamine binding to various BIR domains were empirically optimized. […] For cIAP1-BIR3, the assay buffer was 25 mM Hepes [pH 7.5] containing 40 mM β-glycerol phosphate, 1 mM TCEP, and 0.005% Tween 20, typically with 20 nM SMAC-rhodamine. For cIAP1-BIR2, cIAP2-BIR2 and cIAP2-BIR3, assays were performed in 25 mM Hepes [pH 7.5] containing 1 mM TCEP and 0.005% Tween 20, typically with 20 nM SMAC-rhodamine.
(§4) For cIAP1-BIR2, assays were conducted using 25 mM Hepes [pH 7.5] containing 1 mM TCEP, 0.005% Tween 20, ~1 μM cIAP1-BIR2, and 20 nM SMAC-rhodamine. For cIAP1-BIR3, assays were performed using the same buffered solution, except 40 mM β-glycerol phosphate was added and the cIAP1-BIR3 concentration was reduced to 50 nM. For cIAP2-BIR2, assays included a buffer containing 25 mM Hepes [pH 7.5] containing 1 mM TCEP, 0.005% Tween 20, 1 μM cIAP2-BIR2, and 20 nM SMAC-rhodamine. […] IC50 values were determined with a nonlinear fit using Prism software. Ki values were determined from the IC50 values using an online program developed by Nikolovska-Coleska et al. [26].

cIAP1-BIR3 = cIAP1-BIR3 (Homo sapiens, UniProt Q13490); test: as above; conditions: cIAP1 BIR3 Ki, 25 mM Hepes pH 7.5, 1 mM TCEP, 0.005% Tween 20, 20 nM SMAC-rhodamine, 40 mM β-glycerol phosphate, ~50 nM protein; Ki calculated from IC50
Experimental: as §3, §4

cIAP2-BIR3 = cIAP2-BIR3 (Homo sapiens, UniProt Q13489); test: as above
Experimental: as §3, §4

cIAP2-BIR2 = cIAP2-BIR2 (Homo sapiens, UniProt Q13489); test: as above
Experimental: as §3, §4

[1] = tested on: PC-3 prostate cancer cells; test: Cytotoxicity assay, sensitization to TNF (CellTiter-Glo); assay type: cell-based, human; parameters: key to TNF EC50: IN: EC50 too weak to be determined
Experimental: (§1) Cellular cytotoxicity experiments were conducted in white 96-well flat bottom plates (Greiner Bio-One #655074). PC-3 prostate cancer cells were seeded into microtiter wells in 90 μL RPMI medium with 10% fetal calf serum and antibiotics at 5,000 cells per well, and then incubated overnight at 37°C with 5% CO2/95% air. The next day, compounds diluted into the same culture medium and added in 10 μL aliquots to achieve various final concentrations, maintaining a uniform total volume per well. Either TNF (at 10 nM final) or LT-α (at ~90 pM final) resuspended in 10 μL of RPMI with 10% fetal calf serum and antibiotics was added to wells or an equal volume of medium was applied for the control well. The plates were then further incubated for 24 h. Subsequently, cell viability was assessed by the addition of 25 μL per well of Cell-Titer-Glo reagent (Promega, Inc). Plates were read using a Luminoskan Ascent luminometer.
(§2) The cellular activity of cIAP1 and cIAP2 inhibitors was evaluated through experiments where cytotoxicity of a human prostate tumor cell line (PC-3) was assessed in the presence or absence of cytokines TNF and LT-α. The experimental approach we used was to provide TNF or LT-α at a fixed concentration, which by itself was non-cytotoxic, then titrate SMAC mimetics into the cell cultures. […] The compound series described in this work has been tested against a broad range of cell lines (data not shown and [23]) and single agent toxicity was only observed for SKOV3 ovarian tumor cells. This agrees with the findings of Varfolomeev, Vince and Lalaoui, respectively.

[2] = tested on: PC-3 prostate cancer cells; test: Cytotoxicity assay, sensitization to LT-α (CellTiter-Glo); assay type: cell-based, human; parameters: key to LT-α EC50: IN: EC50 too weak to be determined
Experimental: as §1, §2

cIAP1-BIR2, sequence (Q13490 144-260): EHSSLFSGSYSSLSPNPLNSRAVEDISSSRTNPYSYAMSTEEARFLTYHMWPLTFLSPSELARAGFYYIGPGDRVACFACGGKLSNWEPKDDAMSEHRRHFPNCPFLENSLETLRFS
cIAP2-BIR2, sequence (Q13489 129-246): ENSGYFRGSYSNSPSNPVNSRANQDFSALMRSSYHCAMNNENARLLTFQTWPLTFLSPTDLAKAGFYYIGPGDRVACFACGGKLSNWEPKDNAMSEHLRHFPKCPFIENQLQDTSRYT
cIAP1-BIR3, sequence (Q13490 257-356): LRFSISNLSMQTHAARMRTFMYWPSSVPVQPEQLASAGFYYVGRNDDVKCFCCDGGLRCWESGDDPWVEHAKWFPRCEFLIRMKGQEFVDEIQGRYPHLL
cIAP2-BIR3, sequence (Q13489 243-333): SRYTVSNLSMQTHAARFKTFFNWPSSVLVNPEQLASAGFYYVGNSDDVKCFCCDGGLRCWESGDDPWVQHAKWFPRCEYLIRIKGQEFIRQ

For CN[C@@H](C)C(=O)N[C@H](C(=O)N1CCC[C@@H]1C(=O)Nc1cccc2ccccc12)C(C)C [compound 16], the Ki (cIAP1-BIR2) was 1.73 µM, the Ki (cIAP1-BIR3) was 180 nM and 200 nM and the Ki (cIAP2-BIR3) was 200 nM. It also gave a Ki (cIAP2-BIR2) of 3.35 µM.
Compound CC(C)[C@H](NC(=O)[C@H](C)N)C(=O)N[C@@H](C)C(=O)Nc1cccc2ccccc12 [compound 17] has a Ki (cIAP1-BIR2) of 3.77 µM, a Ki (cIAP1-BIR3) of 1230 nM and a Ki (cIAP2-BIR3) of 980 nM. The Ki (cIAP2-BIR2) was 5.98 µM.
Work on CC(C)[C@H](NC(=O)[C@@H](N)CO)C(=O)N[C@@H](C)C(=O)Nc1cccc2ccccc12 [compound 19] yielded a Ki (cIAP1-BIR2) of 8.33 µM, a Ki (cIAP1-BIR3) of 4370 nM and a Ki (cIAP2-BIR3) of 17200 nM. The Ki (cIAP2-BIR2) was 22.4 µM.
In the case of CC[C@H](N)C(=O)N[C@H](C(=O)N[C@@H](C)C(=O)Nc1cccc2ccccc12)C(C)C [compound 20], the Ki (cIAP1-BIR2) is reported as 24.9 µM, the Ki (cIAP1-BIR3) is reported as 4770 nM and the Ki (cIAP2-BIR3) is reported as 5290 nM. For the same compound, the Ki (cIAP2-BIR2) was 43.8 µM.
CC(C)[C@H](NC(=O)[C@H](C)N)C(=O)N[C@@H](CCCNC(=O)OCc1ccccc1)C(=O)Nc1cccc2ccccc12 [compound 21] was tested, and the Ki (cIAP1-BIR2) was 2.77 µM, the Ki (cIAP1-BIR3) was 850 nM and the Ki (cIAP2-BIR3) was 990 nM. For the same compound, the Ki (cIAP2-BIR2) was 4.79 µM.
Compound CN[C@@H](C)C(=O)N[C@H](C(=O)N1CCC[C@H]1C(=O)NNc1ccccc1)C(C)C [compound 22] has a Ki (cIAP1-BIR2) of 3.62 µM, a Ki (cIAP1-BIR3) of 260 nM and a Ki (cIAP2-BIR3) of 560 nM. It also gave a Ki (cIAP2-BIR2) of 5.43 µM.
In the case of CN[C@@H](C)C(=O)N[C@H](C(=O)N[C@@H](C)C(=O)NNc1ccccc1)C(C)C [compound 23], the Ki (cIAP1-BIR2) is reported as 7.39 µM, the “TNF EC50” value ([1]; PC-3 cells, 10 nM TNF, 24 h, cell viability) is reported as “IN^b” and the “cytotoxicity against PC-3 cells with TNF” value ([1]; in words) is reported as “essentially no cytotoxicity”. For the same compound, the “LT-α EC50” value ([2]; PC-3 cells, ~90 pM LT-α, 24 h, cell viability) was “IN^b”, the “cytotoxicity against PC-3 cells with LT-α” value ([2]; in words) was “essentially no cytotoxicity” and the Ki (cIAP1-BIR3) was 6130 nM and 6100 nM. The Ki (cIAP2-BIR3) was 8290 nM and the Ki (cIAP2-BIR2) was 13.6 µM.
Work on CN[C@@H](C)C(=O)N[C@H](C(=O)N[C@@H](CCCN=C(N)N)C(=O)NNc1ccccc1)C(C)C [compound 28] yielded a Ki (cIAP1-BIR2) of 4.39 µM, a Ki (cIAP1-BIR3) of 1970 nM and a Ki (cIAP2-BIR3) of 1420 nM. The Ki (cIAP2-BIR2) was 15.4 µM.
In the case of CN[C@@H](C)C(=O)N[C@@H](CCC(=O)O)C(=O)N[C@@H](C)C(=O)NNc1ccccc1 [compound 29], the Ki (cIAP1-BIR2) is reported as 7.67 µM, the Ki (cIAP1-BIR3) is reported as 10900 nM and the Ki (cIAP2-BIR3) is reported as 23000 nM. It also gave a Ki (cIAP2-BIR2) of 25.1 µM.
CN[C@@H](C)C(=O)N[C@H](C(=O)N[C@@H](CCCNC(=O)OCc1ccccc1)C(=O)NNc1ccccc1)C(C)C [compound 31] gave a Ki (cIAP2-BIR3) of 1290 nM and a Ki (cIAP2-BIR2) of 2.93 µM.
With CN[C@@H](C)C(=O)N[C@H](C(=O)N[C@@H](CCCN)C(=O)NNc1ccccc1)C(C)C [compound 32] the Ki (cIAP1-BIR2) was 3.82 µM, the Ki (cIAP1-BIR3) was 4010 nM and the Ki (cIAP2-BIR3) was 2170 nM. It also gave a Ki (cIAP2-BIR2) of 10.9 µM.
CN[C@@H](C)C(=O)N[C@H](C(=O)N[C@@H](CCCCN)C(=O)NNc1ccccc1)C(C)C [compound 35] showed a Ki (cIAP1-BIR2) of 2.18 µM, a Ki (cIAP1-BIR3) of 2830 nM and a Ki (cIAP2-BIR3) of 1350 nM. The Ki (cIAP2-BIR2) was 5.09 µM.
Compound CC(C)[C@H](NC(=O)[C@H](C)N)C(=O)N1CCC[C@H]1C(=O)NNc1ccccc1 [compound 36] has a Ki (cIAP1-BIR2) of 6.11 µM, a Ki (cIAP1-BIR3) of 340 nM and a Ki (cIAP2-BIR3) of 570 nM. It also gave a Ki (cIAP2-BIR2) of 12.9 µM.
With CN[C@@H](C)C(=O)N[C@H](C(=O)N1CCC[C@H]1C(=O)Nc1ccc2ccccc2n1)C(C)C [compound 39] the EC50 ([1]; PC-3 cells, 10 nM TNF, 24 h, cell viability, read-out: TNF EC50) was 70 nM, the EC50 ([2]; PC-3 cells, ~90 pM LT-α, 24 h, cell viability, read-out: LT-α EC50) was 30 nM and the Ki (cIAP1-BIR3) was 80 nM.
Compound “AVPIAQK-NH2 [SMAC-7-mer, AVPIAQK, reference compound]” has a Ki (cIAP1-BIR2) of 15.4 µM, a Ki (cIAP1-BIR3) of 450 nM and a Ki (cIAP2-BIR3) of 420 nM. The Ki (cIAP2-BIR2) was 26.4 µM.
